From patent US12428378B2, “Methods and materials for increasing level of phosphorylated AMPK protein” (University of Pittsburgh—Of the Commonwealth System of …, priority 2019, dated 2025)

Each compound was assayed on pAMPK (assay: pAMPK immunostaining chemiluminescence assay in Beas2B cells). Settings: Homo sapiens, BEAS-2B, 18 h, DMEM no glucose media, compounds 3-34, 36-44, 47-60 tested as HCl salts, read-out: efficacy (minimal compound concentration needed to increase pAMPK by 30%).
Type: cell-based

SMILES	EC (30% increase)
FC(COc1ccc(C(F)(F)F)cc1)CN(Cc1cccnc1)Cc1ccccc1Cl (stereo not shown) [compound 164]	≤ 1 µM
COC(=O)C1c2ccccc2CCN1CCCOc1ccc(C(F)(F)F)cc1 (stereo not shown) [compound 187]	≤ 1 µM
Cn1ccnc1C1Cc2ccccc2CN1CC(O)COc1ccc(C(F)(F)F)cc1 (stereo not shown) [compound 149]	1 to 10 µM
Cc1ccccc1CN(Cc1c[nH]nc1-c1ccccc1)CC(O)COc1ccc(C(F)(F)F)cc1 (stereo not shown) [compound 73]	1 to 10 µM
O=C(CCOc1ccc(C(F)(F)F)cc1)N1Cc2ccccc2CC1c1cccnc1 (stereo not shown) [compound 62]	1 to 10 µM
Cn1cncc1C(=O)N(Cc1c(Cl)cccc1Cl)CC(O)COc1ccc(C(F)(F)F)cc1 (stereo not shown) [compound 144]	1 to 10 µM
Cc1ccccc1CN(Cc1cccnc1)CC(O)COc1ccc(C(F)(F)F)cn1 (stereo not shown) [compound 24]	> 10 µM
Cc1ccccc1CN(CC(O)COc1ccc(C(F)(F)F)cc1)c1cccnc1 (stereo not shown) [compound 55]	1 to 10 µM
Cc1ccncc1CN(Cc1cccnc1C)CC(O)COc1ccc(C(F)(F)F)cc1 (stereo not shown) [compound 32]	≤ 1 µM
Cc1ccccc1CN(CCCOc1ccc(C(F)(F)F)cc1)Cc1nccn1C [compound 105]	≤ 1 µM
FC(F)(F)c1ccc(OCCCN2CCc3ccccc3C2c2cncs2)cc1 (stereo not shown) [compound 107]	≤ 1 µM
Cc1ncccc1CN(CC(O)COc1ccc(C(F)(F)F)cc1)C(=O)c1cncn1C (stereo not shown) [compound 146]	> 10 µM
OC(COc1ccc(C(F)(F)F)cc1)CN1CCc2ccccc2C1c1cccnc1 (stereo not shown) [compound 95]	≤ 1 µM
OC(COc1cccnc1)CN(Cc1ccccc1)Cc1ccccc1 (stereo not shown) [compound 9]	> 10 µM
OC(COc1cncnc1)CN(Cc1ccccc1)Cc1ccccc1 (stereo not shown) [compound 16]	1 to 10 µM
OC(CNCC(c1ccccc1)c1ccccc1)COc1ccc(C(F)(F)F)cc1 (stereo not shown) [compound 14]	> 10 µM
OC(COc1ccc(C(F)(F)F)cc1)CN1CCc2ccccc2[C@H]1c1ccccc1 (stereo partly shown) [compound 114]	> 10 µM

SMILES	EC (30% increase)
Fc1ccccc1CN(CCOc1ccc(C(F)(F)F)cc1)Cc1cccnc1 [compound 156]	≤ 1 µM
Cc1ccccc1CN(CC(O)COc1ccc(C(F)(F)F)cc1)C(=O)c1cncn1C (stereo not shown) [compound 81]	≤ 1 µM
Cc1ccccc1CN(CC(C)COc1ccc(C(F)(F)F)cc1)C(=O)c1cncn1C (stereo not shown) [compound 195]	≤ 1 µM
CC(c1cccnc1)N(Cc1ccccc1)CC(O)COc1ccc(C(F)(F)F)cc1 (stereo not shown) [compound 46]	≤ 1 µM
Cn1cncc1C(=O)N(Cc1ccccc1C(F)(F)F)CC(O)COc1ccc(C(F)(F)F)cc1 (stereo not shown) [compound 145]	1 to 10 µM
Fc1ccccc1CN(CCOc1ccc(C(F)(F)F)cc1)Cc1cncs1 [compound 173]	≤ 1 µM
[2H]C([2H])(c1cccnc1)N(CCCOc1ccc(C(F)(F)F)cc1)Cc1ccccc1C [compound 135]	≤ 1 µM
Cc1ccccc1CN(Cc1cccnc1)CC(C)(O)COc1ccc(C(F)(F)F)cc1 (stereo not shown) [compound 200]	≤ 1 µM
Cc1ccccc1CN(CC(O)COc1ccc(C(F)(F)F)cc1)c1cccc2ncccc12 (stereo not shown) [compound 54]	1 to 10 µM
Cc1ccccc1CN(CCOc1ccc(C(F)(F)F)cc1)Cc1cncn1C [compound 171]	1 to 10 µM
Cc1ccccc1CN(CC(O)COc1ccc(C(F)(F)F)cc1)C(=O)c1ccnn1C (stereo not shown) [compound 152]	1 to 10 µM
Cc1ccccc1CN(Cc1ccc(C(F)(F)F)nc1)CC(O)COc1ccc(F)cc1 (stereo not shown) [compound 44]	≤ 1 µM
O[C@@H](COc1ccc(C(F)(F)F)cc1)CN1CCc2ccccc2[C@@H]1c1ccccc1 [compound 112]	≤ 1 µM
CC(C)(COc1ccc(C(F)(F)F)cc1)CN(Cc1cccnc1)Cc1cccnc1 [compound 184]	≤ 1 µM
CC(=O)OC(COc1ccc(C(F)(F)F)cc1)C(=O)N(Cc1cccnc1)Cc1ccccc1Cl (stereo not shown) [compound 127]	≤ 1 µM
Cc1ccccc1CN(Cc1cncs1)CC(O)COc1ccc(C(F)(F)F)cc1 (stereo not shown) [compound 40]	≤ 1 µM
Cc1ncccc1CN(Cc1ccccc1)CC(O)COc1ccc(C(F)(F)F)cc1 (stereo not shown) [compound 26]	≤ 1 µM
